Patent US20260373248A1, “DEGRADABLE PEPTOIDS” (Medici Therapeutics, Inc., priority 2023, published 2026)
Non-standard residues stand in square brackets, D forms with d. Residues, ends and D or L forms follow the SMILES beside them. *: point of attachment. Gly(N-(3-decanoyloxypropyl)) = CCCCCCCCCC(=O)OCCCNCC(=O)O; N(3-lauroyloxypropyl)Gly = CCCCCCCCCCCC(=O)OCCCNCC(=O)O; Gly(N-(CH2)3O-octanoyl) = CCCCCCCC(=O)OCCCNCC(=O)O; N(3-imidazol-1-ylpropyl)Gly = O=C(O)CNCCCn1ccnc1; Gly(N-3-morpholinopropyl) = O=C(O)CNCCCN1CCOCC1; N(2-ethylhexyl)Gly = CCCCC(CC)CNCC(=O)O; Gly(N-dodecyl) = CCCCCCCCCCCCNCC(=O)O; N(CH(CH2OH)2)Gly = O=C(O)CNC(CO)CO; NHexGly = CCCCCCNCC(=O)O; For = O=C*

Experiments:
[1] = Delivery vehicle size and polydispersity by dynamic light scattering; format: physicochemical
Method in brief: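 LNPs made by microfluidic mixing of ethanolic peptoid/DSPC/cholesterol/DMG-PEG2000 (20:1.79:7.16:1.84 by weight) with mRNA in 10 mM citrate pH 5.0 at 1:3 by volume, then dialyzed overnight at 4 °C against tris-sucrose pH 7.4. Size and PDI read by dynamic light scattering in PBS.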

hEPO = assay: Quantification of hEPO in serum after IV injection of mRNA (Human EPO ELISA); format: in vivo; conditions: Balb/c mice, 2.5 μg mRNA IV, serum after 6 hours
Method: Balb/c mice were treated with 2.5 μg of mRNA coding for human erythropoiten via IV injection according to a similar method as in Example 4. hEPO protein in the serum was quantified after 6 hours using the Human EPO ELISA Kit from Invitrogen (catalog #BMS2035-2). Wash buffer (PBS with 1% tween 20) and assay buffer (PBS with 1% tween 20, 10% BSA) were prepared from a 20× concentrate with milli-Q water. Serum samples were diluted with PBS according to expected EPO concentration, with a 50× dilution for low expression samples and up to a 30,000× dilution for samples expected to have high expression. Microwell strips were washed in a plate washer with wash buffer and tapped on an absorbent pad to remove excess buffer. 100 μL of sample diluent were added to each well that will be used for the standard curve. 50 μL of sample diluent was added to each sample well.
The standard curve was prepared by reconstituting the human erythropoietin standard by adding the volume of water listed on the vial label. Standard was swirled gently and allowed to reconstitute for 10 minutes prior to use, then 100 μL is added to standard wells and mixed well. 100 μL from standard wells were then transferred to sample wells and mixed well. This was repeated 5 times to produce 2 columns of standard dilutions from 100 to 1.6 mIU/mL. 100 μL was discarded from the last microwells. The final 2 wells contained 100 μL of sample diluent and served as a blank. An external standard was also included to facilitate a mIU/mL conversion to ng/mL. The same serial dilution method was repeated starting with the external standard at 6.25 ng/mL. Once the standards were added, 50 μL of each sample was added in duplicate to the sample wells. Next, the biotin-conjugate was prepared by diluting 1:100 in assay buffer. 50 μL of biotin-conjugate was added to all wells and the plate was covered with a plate seal and shaken at room temperature for 1 hour. During the last few minutes of shaking, streptavidin-HRP was prepared by diluting 1:100 in assay buffer. The plate was washed on a plate washer and tapped on an absorbent pad to remove remaining wash buffer.
100 μL of the diluted streptavidin-HRP was added to each well and the plate was sealed and shaken for 15 minutes at room temperature. After 15 minutes, the plate seal was removed and the plate was washed on a plate washer and remaining wash buffer tapped out on an absorbent pad. 100 μL of TMB substrate was added to all wells and the plate was incubated for 10 minutes at room temperature out of direct light. Color development was checked every few minutes and the assay was stopped when the highest standard was dark blue. The reaction was stopped by pipetting 100 μL of stop solution into each well. Immediately after stop solution was added, the plate was gently tapped to ensure the solution was mixed. Absorbance was then read at 450 nm for each well. A standard curve was plotted for both the kit-provided standards (mIU/mL) and the external standard (ng/mL) and fit using Prism. Sample absorbances that fell within the standard curve were interpolated and adjusted for dilution (including a 2× assay dilution). Samples that were not within the standard curve were repeated at an adjusted dilution.

mRNA = mRNA encapsulation (modified Quant-iT RiboGreen assay); format: physicochemical; conditions: for mean percent encapsulation of RNA: RiboGreen, without vs with Triton X-100; for % Encapsulation: mRNA
Method in brief: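 Peptoid nanoparticles were incubated with Triton X-100 for 10 min to release entrapped mRNA, then mixed with RiboGreen reagent and read by fluorescence (ex 485 nm/em 530 nm). Percent encapsulation was derived from the ratio of fluorescence without versus with Triton X-100.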

luciferase = assay: Luciferase expression after local (intramuscular or subcutaneous) administration of mRNA; format: in vivo; conditions: mRNA 0.01 mpk, 6 hours; for IM Flux: intramuscular; for SC Flux: subcutaneous
Method in brief: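 Female Balb/c mice (6-8 weeks) received fLuc mRNA in aminolipidated peptoid Nutshells at 0.01 mpk subcutaneously or intramuscularly, or 0.1 mpk intratumorally. At 6 hours, anesthetized mice were given D-luciferin IP and imaged 10 minutes later; harvested organs were also imaged and total photon flux quantified in regions of interest.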

firefly luciferase = assay: In vivo firefly luciferase expression after intravenous injection of fLuc mRNA delivery vehicles (IVIS imaging); parameters: species or system female Balb/c mice; conditions: for Total Flux: mice, 2.5 ug fLuc mRNA intravenously, 6 hours post-injection; for Total Flux (luciferase expression): fLuc mRNA, intravenous, Balb/c mice
Method in brief: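 Female Balb/c mice (6-8 weeks) given 2.5 ug fLuc mRNA in Nutshells IV. At 6 hours, IP D-luciferin (30 mg/mL, 10 μL/g) under isoflurane; IVIS imaging 10 minutes later, then harvested organs imaged ex vivo. Read-out: total photon flux in regions of interest.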

[2] = Peptoid quantity remaining in liver by HPLC-TOF mass spectrometry; format: in vivo; conditions: liver homogenate
Method: Peptoid quantity in liver was determined via high-performance liquid chromatography coupled with time-of-flight mass spectrometer (HPLC-TOF). The entire liver was weighed, and then two sections were isolated using a provided biopsy punch for liver homogenization. Liver homogenate sample was prepared by resuspending 20 mg liver tissue in 400 μL extraction solvent (IPA/MeOH=8/2) containing an internal standard (400 pg/μL) followed by bead homogenization (45 sec per cycle for 3-4 cycles). Homogenized samples were centrifuged at 12,000 rpm for 8 min at 6 °C. The resulting supernatant was collected and stored at −20 °C for further LC analysis. 5 μL of the resulting supernatant sample from solid or liquid tissue was injected into a BEH C8 column on an Agilent 1290 Infinity II liquid chromatograph coupled with an Agilent 6230 LC-TOF system. Concentrations of peptoids were determined by a linear calibration curve (linear range:0.2-50 μg/g for solid tissue). Standard calibration curve solutions were prepared by spiking untreated liver followed by homogenization and centrifugation.

[3] = DLS in PBS, peptoid:DSPC:Cholesterol:DMG-PEG2000 weight ratio 20:1.79:7.16:1.84, mRNA

| PDI [1, 3] | Particle Size [1, 3] | mean percent encapsulation of RNA (mRNA) | % of injected dose remaining in liver [2] | Particle Size ([1]; formulation recipe D22) | Particle Size ([1]; formulation recipe O3) | Particle Size ([1]; formulation recipe O7) | % Encapsulation (mRNA; formulation recipe D22) | % Encapsulation (mRNA; formulation recipe O3) | % Encapsulation (mRNA; formulation recipe O7) | SMILES | hEPO (hEPO) | IM Flux (luciferase) | SC Flux (luciferase) | Total Flux (firefly luciferase) | Total Flux (luciferase expression) (firefly luciferase; formulation recipe D22) | Total Flux (luciferase expression) (firefly luciferase; formulation recipe O3) | Total Flux (luciferase expression) (firefly luciferase; formulation recipe O7) |
| --- | --- | --- | --- | --- | --- | --- | --- | --- | --- | --- | --- | --- | --- | --- | --- | --- | --- |
| 0.113 | 74.4 nm | 94.6% | 5.98% |  |  |  |  |  |  | CCCCCCCC(=O)OCCCN(CC(=O)N(CC(=O)N(CC(=O)N(CCCOC(=O)CCCCCCC)CC(=O)N(CC(N)=O)CC(CC)CCCC)CC(CC)CCCC)CC(CC)CCCC)C(=O)CN(CC(CC)CCCC)C(=O)CNC(CO)CO (stereo not shown) [Compound 4] (H-[N(CH(CH2OH)2)Gly][N(2-ethylhexyl)Gly][Gly(N-(CH2)3O-octanoyl)][N(2-ethylhexyl)Gly][N(2-ethylhexyl)Gly][Gly(N-(CH2)3O-octanoyl)][N(2-ethylhexyl)Gly]-NH2) | 291 ng/mL | 5.26E+08 p/s | 5.11E+08 p/s | 4.33E+09 p/s |  |  |  |
| 0.076 | 86.2 nm | 84.8% | 14.71% | 86.2 nm | 81.6 nm | 51.7 nm | 84.8% | 82.2% | 93.5% | CCCCCCCCCC(=O)OCCCN(CC(=O)N(CC(=O)N(CC(=O)N(CCCOC(=O)CCCCCCCCC)CC(=O)N(CC(N)=O)CC(CC)CCCC)CC(CC)CCCC)CC(CC)CCCC)C(=O)CN(CC(CC)CCCC)C(=O)CNC(CO)CO (stereo not shown) [Compound 5] (H-[N(CH(CH2OH)2)Gly][N(2-ethylhexyl)Gly][Gly(N-(3-decanoyloxypropyl))][N(2-ethylhexyl)Gly][N(2-ethylhexyl)Gly][Gly(N-(3-decanoyloxypropyl))][N(2-ethylhexyl)Gly]-NH2) | 278 ng/mL | 1.62E+08 p/s | 1.71E+08 p/s | 1.77E+09 p/s | 1.77E+09 p/s | 3.25E+09 p/s | 1.93E+09 p/s |
| 0.125 | 83.9 nm | 77.1% | 13.73% |  |  |  |  |  |  | CCCCCCCCCCCC(=O)OCCCN(CC(=O)N(CC(=O)N(CC(=O)N(CCCOC(=O)CCCCCCCCCCC)CC(=O)N(CC(N)=O)CC(CC)CCCC)CC(CC)CCCC)CC(CC)CCCC)C(=O)CN(CC(CC)CCCC)C(=O)CNC(CO)CO (stereo not shown) [Compound 6] (H-[N(CH(CH2OH)2)Gly][N(2-ethylhexyl)Gly][N(3-lauroyloxypropyl)Gly][N(2-ethylhexyl)Gly][N(2-ethylhexyl)Gly][N(3-lauroyloxypropyl)Gly][N(2-ethylhexyl)Gly]-NH2) | 245 ng/mL | 1.22E+08 p/s | 1.14E+08 p/s | 1.67E+09 p/s |  |  |  |
| 0.289 | 111.2 nm | 66.2% | 10.58% |  |  |  |  |  |  | CCCCCCCCCCCC(=O)OCCCN(CC(=O)N(CCCOC(=O)CCCCCCCCCCC)CC(=O)N(CCCCCC)CC(=O)N(CCCOC(=O)CCCCCCCCCCC)CC(=O)N(CCCOC(=O)CCCCCCCCCCC)CC(=O)N(CCCCCC)CC(N)=O)C(=O)CNCCCn1ccnc1 [Compound 73] (H-[N(3-imidazol-1-ylpropyl)Gly][N(3-lauroyloxypropyl)Gly][N(3-lauroyloxypropyl)Gly][NHexGly][N(3-lauroyloxypropyl)Gly][N(3-lauroyloxypropyl)Gly][NHexGly]-NH2) | 27.8 ng/mL | 5.36E+07 p/s | 6.38E+07 p/s |  |  |  |  |
|  |  |  | 6.17% |  |  |  |  |  |  | CCCCCCCCCCCC(=O)OCCCN(C=O)CC(=O)N(CCCOC(=O)CCCCCCCCCCC)CC(=O)N(CC(=O)N(CCCN1CCOCC1)CC(=O)N(CCCOC(=O)CCCCCCCCCCC)CC(=O)N(CCCOC(=O)CCCCCCCCCCC)CC(=O)N(CC(N)=O)CC(CC)CCCC)CC(CC)CCCC (stereo not shown) [Compound 81] (For-[N(3-lauroyloxypropyl)Gly][N(3-lauroyloxypropyl)Gly][N(2-ethylhexyl)Gly][Gly(N-3-morpholinopropyl)][N(3-lauroyloxypropyl)Gly][N(3-lauroyloxypropyl)Gly][N(2-ethylhexyl)Gly]-NH2) | 52 ng/mL | 2.11E+08 p/s | 6.97E+07 p/s | 1.89E+08 p/s |  |  |  |
| 0.102 | 81.1 nm | 0.0% | 40.01% |  |  |  |  |  |  | CCCCCCCCCCCCN(C=O)CC(=O)N(CCCOC(=O)CCCCCCCCCCC)CC(=O)N(CC(=O)N(CCCn1ccnc1)CC(=O)N(CC(=O)N(CCCOC(=O)CCCCCCCCCCC)CC(=O)N(CCCCCCCCCCCC)CC(N)=O)CC(CC)CCCC)CC(CC)CCCC (stereo not shown) [Compound 85] (For-[Gly(N-dodecyl)][N(3-lauroyloxypropyl)Gly][N(2-ethylhexyl)Gly][N(3-imidazol-1-ylpropyl)Gly][N(2-ethylhexyl)Gly][N(3-lauroyloxypropyl)Gly][Gly(N-dodecyl)]-NH2) | 26.3 ng/mL | 5.99E+07 p/s | 4.21E+07 p/s |  |  |  |  |
